In patent US8952024B2, “Herbicidal pyrimidone derivatives” (E I du Pont de Nemours and Company, priority 2009, dated 2015):

Assays:
Experiment in all cases: Test B pre-/postemergence plant response
Assay type in all cases: in vivo
Details in all cases: Postemergence
[1] = system: downy bromegrass (Bromus tectorum)
Outline: (§1)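 Pre-em in loam/sand; post-em at 1–4 leaf (2–18 cm) in peat mix. Solvent + surfactant formulation. Greenhouse 13–15 d; visual % control vs untreated, 0–100.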

[2] = system: yellow nutsedge (Cyperus esculentus)
Outline: as §1

[3] = system: lambsquarters (Chenopodium album)
Outline: as §1

[4] = system: woolly cupgrass (Eriochloa villosa)
Outline: as §1

[5] = system: green foxtail (Setaria viridis)
Outline: as §1

[6] = system: giant foxtail (Setaria faberii)
Outline: as §1

[7] = system: large crabgrass (Digitaria sanguinalis)
Outline: as §1

[8] = system: Surinam grass (Brachiaria decumbens)
Outline: as §1

[9] = system: corn (Zea mays)
Outline: as §1

[10] = system: bermudagrass (Cynodon dactylon)
Outline: as §1

[11] = system: Italian ryegrass (Lolium multiflorum)
Outline: as §1

[12] = system: blackgrass (Alopecurus myosuroides)
Outline: as §1

[13] = system: morningglory (Ipomoea coccinea)
Outline: as §1

[14] = 31 g ai/ha, 0 to 100 scale (0 no effect, 100 complete control)
[15] = 62 g ai/ha, scale 0 to 100 (0 no effect, 100 complete control)
[16] = 125 g ai/ha, scale 0 (no effect) to 100 (complete control), 13 to 15 days
[17] = 250 g ai/ha, scale 0 to 100 (0 no effect, 100 complete control), 13 to 15 days

For `COCCCn1c(-c2cccc(F)c2)ncc(C(=O)C2=C(O)C3CCC(C3)C2=O)c1=O` (centres unmarked) [Compound 238], the “Plant response rating, Bromegrass, Downy” value [1, 14] was 10, the “Plant response rating, Bromegrass, Downy” value [1, 15] was 40 and the “Plant response rating, Bromegrass, Downy” value [1, 16] was 50. For the same molecule, the “Plant response rating, Bromegrass, Downy” value [1, 17] was 85, the “Plant response rating, Nutsedge, Yellow” value [2, 14] was 20 and the “Plant response rating, Nutsedge, Yellow” value [2, 15] was 20. For the same molecule, the “Plant response rating, Nutsedge, Yellow” value [2, 16] was 20, the “Plant response rating, Nutsedge, Yellow” value [2, 17] was 25 and the “Plant response rating, Lambsquarters” value [3, 14] was 100. For the same molecule, the “Plant response rating, Lambsquarters” value [3, 15] was 100, the “Plant response rating, Lambsquarters” value [3, 16] was 100 and the “Plant response rating, Lambsquarters” value [3, 17] was 100. The “Plant response rating, Cupgrass, Woolly” value [4, 14] was 95, the “Plant response rating, Cupgrass, Woolly” value [4, 15] was 100 and the “Plant response rating, Cupgrass, Woolly” value [4, 16] was 100. The “Plant response rating, Cupgrass, Woolly” value [4, 17] was 100, the “Plant response rating, Foxtail, Green” value [5, 14] was 85 and the “Plant response rating, Foxtail, Green” value [5, 15] was 95. For the same molecule, the “Plant response rating, Foxtail, Green” value [5, 16] was 98, the “Plant response rating, Foxtail, Green” value [5, 17] was 98 and the “Plant response rating, Foxtail, Giant” value [6, 14] was 100. For the same molecule, the “Plant response rating, Foxtail, Giant” value [6, 15] was 100, the “Plant response rating, Foxtail, Giant” value [6, 16] was 100 and the “Plant response rating, Foxtail, Giant” value [6, 17] was 100. The “Plant response rating, Crabgrass, Large” value [7, 14] was 95, the “Plant response rating, Crabgrass, Large” value [7, 15] was 98 and the “Plant response rating, Crabgrass, Large” value [7, 16] was 98. The “Plant response rating, Crabgrass, Large” value [7, 17] was 98, the “Plant response rating, Surinam Grass” value [8, 14] was 95 and the “Plant response rating, Surinam Grass” value [8, 15] was 100. For the same molecule, the “Plant response rating, Surinam Grass” value [8, 16] was 100, the “Plant response rating, Surinam Grass” value [8, 17] was 100 and the “Plant response rating, Corn” value [9, 14] was 80. For the same molecule, the “Plant response rating, Corn” value [9, 15] was 80, the “Plant response rating, Corn” value [9, 16] was 95 and the “Plant response rating, Corn” value [9, 17] was 95. For the same molecule, the “Plant response rating, Bermudagrass” value [10, 14] was 95, the “Plant response rating, Bermudagrass” value [10, 15] was 98 and the “Plant response rating, Bermudagrass” value [10, 16] was 100. The “Plant response rating, Bermudagrass” value [10, 17] was 100, the “Plant response rating, Ryegrass, Italian” value [11, 14] was 20 and the “Plant response rating, Ryegrass, Italian” value [11, 15] was 25. For the same molecule, the “Plant response rating, Ryegrass, Italian” value [11, 16] was 25, the “Plant response rating, Ryegrass, Italian” value [11, 17] was 70 and the “Plant response rating, Blackgrass” value [12, 14] was 40. For the same molecule, the “Plant response rating, Blackgrass” value [12, 15] was 60, the “Plant response rating, Blackgrass” value [12, 16] was 60 and the “Plant response rating, Blackgrass” value [12, 17] was 70. For the same molecule, the “Plant response rating, Morningglory” value [13, 16] was 100 and the “Plant response rating, Morningglory” value [13, 17] was 100.
For `CCn1c(-c2ccccc2)ncc(C(=O)C2=C(O)C3CCC(C3)C2=O)c1=O` (centres unmarked) [Compound 239], the “Plant response rating, Bromegrass, Downy” value [1, 14] was 0, the “Plant response rating, Bromegrass, Downy” value [1, 15] was 5 and the “Plant response rating, Bromegrass, Downy” value [1, 16] was 5. The “Plant response rating, Bromegrass, Downy” value [1, 17] was 10, the “Plant response rating, Nutsedge, Yellow” value [2, 14] was 30 and the “Plant response rating, Nutsedge, Yellow” value [2, 15] was 30. For the same molecule, the “Plant response rating, Nutsedge, Yellow” value [2, 16] was 65, the “Plant response rating, Nutsedge, Yellow” value [2, 17] was 70 and the “Plant response rating, Lambsquarters” value [3, 14] was 98. The “Plant response rating, Lambsquarters” value [3, 15] was 98, the “Plant response rating, Lambsquarters” value [3, 16] was 100 and the “Plant response rating, Lambsquarters” value [3, 17] was 100. For the same molecule, the “Plant response rating, Cupgrass, Woolly” value [4, 14] was 75, the “Plant response rating, Cupgrass, Woolly” value [4, 15] was 95 and the “Plant response rating, Cupgrass, Woolly” value [4, 16] was 95. The “Plant response rating, Cupgrass, Woolly” value [4, 17] was 95, the “Plant response rating, Foxtail, Green” value [5, 14] was 80 and the “Plant response rating, Foxtail, Green” value [5, 15] was 85. For the same molecule, the “Plant response rating, Foxtail, Green” value [5, 16] was 90, the “Plant response rating, Foxtail, Green” value [5, 17] was 95 and the “Plant response rating, Foxtail, Giant” value [6, 14] was 75. For the same molecule, the “Plant response rating, Foxtail, Giant” value [6, 15] was 85, the “Plant response rating, Foxtail, Giant” value [6, 16] was 90 and the “Plant response rating, Foxtail, Giant” value [6, 17] was 98. The “Plant response rating, Crabgrass, Large” value [7, 14] was 75, the “Plant response rating, Crabgrass, Large” value [7, 15] was 90 and the “Plant response rating, Crabgrass, Large” value [7, 16] was 95. For the same molecule, the “Plant response rating, Crabgrass, Large” value [7, 17] was 98, the “Plant response rating, Surinam Grass” value [8, 14] was 25 and the “Plant response rating, Surinam Grass” value [8, 15] was 35. For the same molecule, the “Plant response rating, Surinam Grass” value [8, 16] was 45, the “Plant response rating, Surinam Grass” value [8, 17] was 75 and the “Plant response rating, Corn” value [9, 14] was 5. For the same molecule, the “Plant response rating, Corn” value [9, 15] was 45, the “Plant response rating, Corn” value [9, 16] was 45 and the “Plant response rating, Corn” value [9, 17] was 75. The “Plant response rating, Bermudagrass” value [10, 14] was 95, the “Plant response rating, Bermudagrass” value [10, 15] was 100 and the “Plant response rating, Bermudagrass” value [10, 16] was 100. The “Plant response rating, Bermudagrass” value [10, 17] was 100, the “Plant response rating, Ryegrass, Italian” value [11, 14] was 0 and the “Plant response rating, Ryegrass, Italian” value [11, 15] was 0. The “Plant response rating, Ryegrass, Italian” value [11, 16] was 0, the “Plant response rating, Ryegrass, Italian” value [11, 17] was 0 and the “Plant response rating, Blackgrass” value [12, 14] was 5. The “Plant response rating, Blackgrass” value [12, 15] was 5, the “Plant response rating, Blackgrass” value [12, 16] was 30 and the “Plant response rating, Blackgrass” value [12, 17] was 50. For the same molecule, the “Plant response rating, Morningglory” value [13, 14] was 95, the “Plant response rating, Morningglory” value [13, 16] was 100 and the “Plant response rating, Morningglory” value [13, 17] was 100.
